From ChEMBL document CHEMBL4177631, “Polyhydroxylated azetidine iminosugars: Synthesis, glycosidase inhibitory activity and molecular docking studies” (Bioorg Med Chem Lett, 2017)
Calls of active or inactive are those of the source. No cut-off for these calls is given here.

Experiments:
Alpha-mannosidase = biological target: T1, Alpha-mannosidase (Canavalia ensiformis, UniProt C0HJB3); assay: Inhibition of Canavalia ensiformis alpha-mannosidase using p-nitrophenyl-alpha-D-mannopyranoside as substrate preincubated for 1 hr followed by substrate addition measured after 10 mins by spectrophotometric method
T1 sequence (C0HJB3 whole entry): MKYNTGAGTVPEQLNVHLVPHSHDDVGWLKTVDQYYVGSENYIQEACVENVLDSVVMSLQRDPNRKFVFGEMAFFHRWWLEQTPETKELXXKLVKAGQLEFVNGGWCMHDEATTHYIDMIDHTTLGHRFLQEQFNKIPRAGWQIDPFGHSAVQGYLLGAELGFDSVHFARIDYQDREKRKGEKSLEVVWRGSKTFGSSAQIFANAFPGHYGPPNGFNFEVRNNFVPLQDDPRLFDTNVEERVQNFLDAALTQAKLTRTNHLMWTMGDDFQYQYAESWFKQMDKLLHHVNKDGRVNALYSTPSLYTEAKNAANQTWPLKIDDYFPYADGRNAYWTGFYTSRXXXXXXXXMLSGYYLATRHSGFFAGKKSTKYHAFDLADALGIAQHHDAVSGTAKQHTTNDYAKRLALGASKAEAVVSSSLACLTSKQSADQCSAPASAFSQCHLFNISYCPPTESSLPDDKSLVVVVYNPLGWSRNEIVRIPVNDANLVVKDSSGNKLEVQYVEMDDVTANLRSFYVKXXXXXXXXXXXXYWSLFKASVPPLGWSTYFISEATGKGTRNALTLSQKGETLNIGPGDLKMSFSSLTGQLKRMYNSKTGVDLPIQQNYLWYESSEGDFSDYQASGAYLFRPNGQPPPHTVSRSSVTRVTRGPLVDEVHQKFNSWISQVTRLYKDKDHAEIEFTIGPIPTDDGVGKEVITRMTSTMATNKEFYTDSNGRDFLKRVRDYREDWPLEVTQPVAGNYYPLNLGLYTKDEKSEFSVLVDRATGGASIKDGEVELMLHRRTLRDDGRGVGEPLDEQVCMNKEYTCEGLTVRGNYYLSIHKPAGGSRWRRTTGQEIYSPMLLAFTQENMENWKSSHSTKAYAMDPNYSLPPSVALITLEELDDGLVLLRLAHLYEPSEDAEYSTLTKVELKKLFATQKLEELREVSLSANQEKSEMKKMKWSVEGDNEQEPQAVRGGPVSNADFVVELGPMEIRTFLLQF

[1] = Inhibition of Aspergillus niger amyloglucosidase using starch as substrate after 10 mins by Miller method
[2] = biological target: T2, Alpha-galactosidase (Escherichia coli) (UniProt P16551); assay: Inhibition of Escherichia coli alpha-galactosidase at 1 mM using p-nitrophenyl-alpha-D-galactopyranoside as substrate preincubated for 1 hr followed by substrate addition measured after 10 mins by spectrophotometric method
T2 sequence (whole entry): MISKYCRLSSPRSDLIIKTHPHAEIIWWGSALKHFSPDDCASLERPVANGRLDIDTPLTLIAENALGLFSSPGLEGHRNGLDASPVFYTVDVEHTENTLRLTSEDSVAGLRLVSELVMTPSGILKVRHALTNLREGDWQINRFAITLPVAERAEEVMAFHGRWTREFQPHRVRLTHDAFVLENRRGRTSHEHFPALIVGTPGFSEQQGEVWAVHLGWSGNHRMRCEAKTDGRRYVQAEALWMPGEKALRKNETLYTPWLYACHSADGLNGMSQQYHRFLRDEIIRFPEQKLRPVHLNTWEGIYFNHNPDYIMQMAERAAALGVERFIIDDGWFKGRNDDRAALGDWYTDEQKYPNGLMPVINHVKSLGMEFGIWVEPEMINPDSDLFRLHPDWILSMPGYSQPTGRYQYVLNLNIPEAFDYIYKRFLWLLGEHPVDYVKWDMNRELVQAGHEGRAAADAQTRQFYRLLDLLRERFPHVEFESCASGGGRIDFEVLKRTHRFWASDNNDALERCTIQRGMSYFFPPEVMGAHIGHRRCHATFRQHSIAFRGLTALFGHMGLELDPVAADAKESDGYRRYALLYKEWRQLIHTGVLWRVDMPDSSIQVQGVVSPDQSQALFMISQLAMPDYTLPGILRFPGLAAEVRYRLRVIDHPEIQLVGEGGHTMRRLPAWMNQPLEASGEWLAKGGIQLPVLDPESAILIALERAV

Alpha-glucosidase = biological target: T3, Alpha-glucosidase (Aspergillus niger, UniProt P56526); assay: Inhibition of Aspergillus niger alpha-glucosidase using p-nitrophenyl-alpha-D-glucopyranoside as substrate preincubated for 1 hr followed by substrate addition measured after 10 mins by spectrophotometric method
T3 sequence (P56526 whole entry): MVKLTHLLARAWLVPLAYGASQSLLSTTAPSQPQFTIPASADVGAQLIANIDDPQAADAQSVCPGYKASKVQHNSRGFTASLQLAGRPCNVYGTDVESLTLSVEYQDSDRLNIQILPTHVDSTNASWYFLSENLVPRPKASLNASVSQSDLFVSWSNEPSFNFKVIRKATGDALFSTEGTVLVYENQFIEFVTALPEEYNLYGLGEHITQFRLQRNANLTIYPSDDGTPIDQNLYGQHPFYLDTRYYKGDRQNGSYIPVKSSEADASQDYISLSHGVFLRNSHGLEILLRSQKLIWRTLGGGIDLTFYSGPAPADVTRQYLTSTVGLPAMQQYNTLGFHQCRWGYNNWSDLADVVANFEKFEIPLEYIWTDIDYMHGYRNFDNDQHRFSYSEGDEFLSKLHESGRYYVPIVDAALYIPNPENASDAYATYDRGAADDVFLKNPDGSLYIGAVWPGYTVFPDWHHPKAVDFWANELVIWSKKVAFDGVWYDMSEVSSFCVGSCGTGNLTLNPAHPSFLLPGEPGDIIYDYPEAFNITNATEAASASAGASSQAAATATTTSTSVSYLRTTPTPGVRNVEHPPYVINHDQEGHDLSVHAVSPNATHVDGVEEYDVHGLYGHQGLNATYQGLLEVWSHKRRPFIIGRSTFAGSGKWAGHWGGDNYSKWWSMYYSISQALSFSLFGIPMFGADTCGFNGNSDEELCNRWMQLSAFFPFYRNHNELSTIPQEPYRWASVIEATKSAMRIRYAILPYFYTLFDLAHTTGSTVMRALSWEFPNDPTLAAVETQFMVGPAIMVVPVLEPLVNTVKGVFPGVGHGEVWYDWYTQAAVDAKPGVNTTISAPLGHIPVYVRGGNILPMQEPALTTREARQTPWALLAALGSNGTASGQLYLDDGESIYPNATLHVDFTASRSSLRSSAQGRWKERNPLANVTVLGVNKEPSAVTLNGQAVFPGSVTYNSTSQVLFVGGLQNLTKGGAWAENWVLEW

Aspergillus niger = assay: Inhibition of Aspergillus niger amyloglucosidase at 1 mM using starch as substrate after 10 mins by Miller method
Alpha-galactosidase = biological target: T4, Alpha-galactosidase (Escherichia coli, UniProt P16551); assay: Inhibition of Escherichia coli alpha-galactosidase using p-nitrophenyl-alpha-D-galactopyranoside as substrate preincubated for 1 hr followed by substrate addition measured after 10 mins by spectrophotometric method
T4 sequence (P16551 whole entry): T2 sequence (whole entry)

| SMILES | IC50 (Alpha-mannosidase) [µM] | IC50 [1] [µM] | inhibition [2] | IC50 (Alpha-glucosidase) [µM] | inhibition (Aspergillus niger) | IC50 (Alpha-galactosidase) [µM] |
| --- | --- | --- | --- | --- | --- | --- |
| OC[C@@H]1N[C@H](CO)[C@@H]1O | 200 | 817 | inactive | 89.4 | – | – |
| CN1[C@H](C(=O)O)[C@H](O)[C@@H]1CO | 83.8 | – | inactive | 64.6 | inactive | – |
| OCCN1C[C@H](O)[C@@H](O)[C@H](O)[C@H]1CO [MIGLITOL] | – | 201 | inactive | 57.1 | – | – |
| OC[C@@H]1N[C@H]([C@@H](O)CO)[C@@H]1O | 76 | 78.2 | – | 53.7 | – | 54.6 |
